Data taken from ChEMBL document CHEMBL5108033, “Salidroside attenuates sepsis-associated acute lung injury through PPP1R15A mediated endoplasmic reticulum stress inhibition” (2022).
Activity calls are given as the source filed them.

Key:
Rattus norvegicus [1] = test: Protection against cecal ligation-induced Sprague-Dawley rat sepsis associated acute lung injury model assessed as reduction in serum TNF-alpha at 50 mg/kg, ip and measured after 24 hrs by ELISA; format: functional, organism-based
Rattus norvegicus [2] = test: Protection against cecal ligation-induced Sprague-Dawley rat sepsis associated acute lung injury model assessed as reduction in total cell number in BALF at 50 mg/kg, ip and measured after 24 hrs by cell counter analysis; format: functional, organism-based
Rattus norvegicus [3] = test: Protection against cecal ligation-induced Sprague-Dawley rat sepsis associated acute lung injury model assessed as reduction in lung wet weight to dry weight ratio at 50 mg/kg, ip and measured after 24 hrs; format: functional, organism-based
Rattus norvegicus [4] = test: Protection against cecal ligation-induced Sprague-Dawley rat sepsis associated acute lung injury model assessed as downregulation of cecal ligation induced phosphorylated eIF-2alpha level at 50 mg/kg, ip and measured after 24 hrs; format: functional, organism-based
Rattus norvegicus [5] = test: Protection against cecal ligation-induced Sprague-Dawley rat sepsis associated acute lung injury model assessed as reduction in serum IL-6 at 50 mg/kg, ip and measured after 24 hrs by ELISA; format: functional, organism-based
Rattus norvegicus [6] = test: Protection against cecal ligation-induced Sprague-Dawley rat sepsis associated acute lung injury model assessed as downregulation of cecal ligation induced CHOP level at 50 mg/kg, ip and measured after 24 hrs; format: functional, organism-based
Rattus norvegicus [7] = test: Protection against cecal ligation-induced Sprague-Dawley rat sepsis associated acute lung injury model assessed as reduction in neutrophil elastase activity in BALF at 50 mg/kg, ip and measured after 24 hrs by Elastase assay; format: functional, organism-based
Rattus norvegicus [8] = test: Protection against cecal ligation-induced Sprague-Dawley rat sepsis associated acute lung injury model assessed as upregulation of cecal ligation inhibited PPP1R15A at 50 mg/kg, ip and measured after 24 hrs; format: functional, organism-based
Rattus norvegicus [9] = test: Protection against cecal ligation-induced Sprague-Dawley rat sepsis associated acute lung injury model assessed as reduction in neutrophil number in BALF at 50 mg/kg, ip and measured after 24 hrs by cell counter analysis; format: functional, organism-based
Rattus norvegicus [10] = test: Protection against cecal ligation-induced Sprague-Dawley rat sepsis associated acute lung injury model assessed as reduction in albumin content in alveolar lavage fluid supernatant at 50 mg/kg, ip and measured after 24 hrs; format: functional, organism-based
Rattus norvegicus [11] = test: Protection against cecal ligation-induced Sprague-Dawley rat sepsis associated acute lung injury model assessed as reduction in lung injury at 50 mg/kg, ip and measured after 24 hrs by H and E staining based analysis; format: functional, organism-based
Rattus norvegicus [12] = test: Protection against cecal ligation-induced Sprague-Dawley rat sepsis associated acute lung injury model assessed as reduction in lung water content at 50 mg/kg, ip and measured after 24 hrs; format: functional, organism-based
Rattus norvegicus [13] = test: Protection against cecal ligation-induced Sprague-Dawley rat sepsis associated acute lung injury model assessed as downregulation of cecal ligation induced GRP78 level at 50 mg/kg, ip and measured after 24 hrs; format: functional, organism-based
Rattus norvegicus [14] = test: Protection against cecal ligation-induced Sprague-Dawley rat sepsis associated acute lung injury model assessed as downregulation of cecal ligation induced ATF4 level at 50 mg/kg, ip and measured after 24 hrs; format: functional, organism-based
Rattus norvegicus [15] = test: Protection against cecal ligation-induced Sprague-Dawley rat sepsis associated acute lung injury model assessed as reduction in serum IL-1beta at 50 mg/kg, ip and measured after 24 hrs by ELISA; format: functional, organism-based
Epithelial cell [16] = test: Upregulation of PPP1R15A expression in LPS-stimulated human HBE cells assessed as inhibition of LPS down regulated PPP1R15A expression at 40 uM incubated for 1 hrs by qRT-PCR analysis; format: functional, cell-based
Epithelial cell [17] = test: Downregulation of ATF4 in LPS-stimulated human HBE cells with silenced PPP1R15A at 40 uM incubated for 1 hr in presence of TUDCA by western blot analysis; format: functional, cell-based
Epithelial cell [18] = test: Inhibition of apoptosis in LPS-stimulated human HBE cells with silenced PPP1R15A assessed as early apoptotic cells at 40 uM incubated for 1 hr in presence of TUDCA by AnnexinV-FITC/PI staining based flow cytometric analysis (Rvb=9.22%); format: functional; parameters: scale not given: the % may be the effect or the level left
Epithelial cell [19] = test: Induction of apoptosis in LPS-stimulated human HBE cells with silenced PPP1R15A assessed as necrotic cells at 40 uM incubated for 1 hr by AnnexinV-FITC/PI staining based flow cytometric analysis (Rvb=0.518%); format: functional
Epithelial cell [20] = test: Downregulation of GRP78 expression in LPS-stimulated human HBE cells at 40 uM incubated for 1 hr by western blot analysis; format: functional, cell-based
Epithelial cell [21] = test: Inhibition of apoptosis in LPS-stimulated human HBE cells with silenced PPP1R15A assessed as necrotic cells at 40 uM incubated for 1 hr in presence of TUDCA by AnnexinV-FITC/PI staining based flow cytometric analysis (Rvb=2.48%); format: functional; parameters: scale not given: the % may be the effect or the level left
Epithelial cell [22] = test: Induction of apoptosis in LPS-stimulated human HBE cells with silenced PPP1R15A assessed as early apoptotic cells at 40 uM incubated for 1 hr by AnnexinV-FITC/PI staining based flow cytometric analysis (Rvb=11%); format: functional
Epithelial cell [23] = test: Induction of apoptosis in LPS-stimulated human HBE cells with silenced PPP1R15A assessed as late apoptotic cells at 40 uM incubated for 1 hr by AnnexinV-FITC/PI staining based flow cytometric analysis (Rvb=85.7%); format: functional
Epithelial cell [24] = test: Inhibition of apoptosis in LPS-stimulated human HBE cells with silenced PPP1R15A assessed as late apoptotic cells at 40 uM incubated for 1 hr in presence of TUDCA by AnnexinV-FITC/PI staining based flow cytometric analysis (Rvb=5.08%); format: functional; parameters: scale not given: the % may be the effect or the level left
Epithelial cell [25] = test: Induction of apoptosis in LPS-stimulated human HBE cells with silenced PPP1R15A assessed as late apoptotic cells at 40 uM incubated for 1 hr by AnnexinV-FITC/PI staining based flow cytometric analysis (Rvb=2.30%); format: functional
Epithelial cell [26] = test: Downregulation of CHOP in LPS-stimulated human HBE cells with silenced PPP1R15A at 40 uM incubated for 1 hr in presence of TUDCA by western blot analysis; format: functional, cell-based
Epithelial cell [27] = test: Cytotoxicity against LPS-stimulated human HBE cells assessed as increase in cell viability at 40 uM and measured for 24 to 72 hrs by CCK-8 assay; format: functional, cell-based; conditions: time 24-72 hrs
Epithelial cell [28] = test: Inhibition of apoptosis in LPS-stimulated human HBE cells with silenced PPP1R15A assessed as necrotic cells at 40 uM incubated for 1 hr in presence of TUDCA by AnnexinV-FITC/PI staining based flow cytometric analysis (Rvb=83.2%); format: functional; parameters: scale not given: the % may be the effect or the level left
Epithelial cell [29] = test: Downregulation of CHOP expression in LPS-stimulated human HBE cells at 40 uM incubated for 1 hr by western blot analysis; format: functional, cell-based
Epithelial cell [30] = test: Inhibition of apoptosis in LPS-stimulated human HBE cells assessed as late apoptotic cells at 40 uM incubated for 1 hr by AnnexinV-FITC/PI staining based flow cytometric analysis (Rvb=5.75%); format: functional; parameters: scale not given: the % may be the effect or the level left
Epithelial cell [31] = test: Downregulation of phosphorylated eIF-2alpha expression in LPS-stimulated human HBE cells at 40 uM incubated for 1 hr by western blot analysis; format: functional, cell-based
Epithelial cell [32] = test: Downregulation of GRP78 in LPS-stimulated human HBE cells with silenced PPP1R15A at 40 uM incubated for 1 hr in presence of TUDCA by western blot analysis; format: functional, cell-based
Epithelial cell [33] = test: Cytotoxicity against LPS-stimulated human HBE cells with silenced PPP1R15A assessed as increase in cell viability at 40 uM and measured for 24 to 72 hrs in presence of TUDCA by CCK-8 assay; format: functional, cell-based; conditions: time 24-72 hrs
Epithelial cell [34] = test: Downregulation of phosphorylated eIF-2alpha expression in LPS-stimulated human HBE cells with silenced PPP1R15A at 40 uM incubated for 1 hr in presence of TUDCA by western blot analysis; format: functional, cell-based
Epithelial cell [35] = test: Inhibition of apoptosis in LPS-stimulated human HBE cells assessed as early apoptotic cells at 40 uM incubated for 1 hr by AnnexinV-FITC/PI staining based flow cytometric analysis (Rvb=21.5%); format: functional; parameters: scale not given: the % may be the effect or the level left
Epithelial cell [36] = test: Inhibition of apoptosis in LPS-stimulated human HBE cells assessed as viable cells at 40 uM incubated for 1 hr by AnnexinV-FITC/PI staining based flow cytometric analysis (Rvb=72.3%); format: functional; conditions: read-out: Activity
Epithelial cell [37] = test: Downregulation of ATF4 expression in LPS-stimulated human HBE cells at 40 uM incubated for 1 hr by western blot analysis; format: functional, cell-based
Epithelial cell [38] = test: Inhibition of apoptosis in LPS-stimulated human HBE cells assessed as necrotic cells at 40 uM incubated for 1 hr by AnnexinV-FITC/PI staining based flow cytometric analysis (Rvb=0.444%); format: functional; parameters: scale not given: the % may be the effect or the level left

C[C@@H]1C[C@H]2[C@@H]3CCC4=CC(=O)C=C[C@]4(C)[C@@]3(F)[C@@H](O)C[C@]2(C)[C@@]1(O)C(=O)CO
active: Activity (Rattus norvegicus [1]) | Activity (Rattus norvegicus [2]) | Activity (Rattus norvegicus [3]) | Activity (Rattus norvegicus [4]) | Activity (Rattus norvegicus [5]) | Activity (Rattus norvegicus [6]) | Activity (Rattus norvegicus [7]) | Activity (Rattus norvegicus [8]) | Activity (Rattus norvegicus [9]) | Activity (Rattus norvegicus [10]) | Activity (Rattus norvegicus [11]) | Activity (Rattus norvegicus [12]) | Activity (Rattus norvegicus [13]) | Activity (Rattus norvegicus [14]) | Activity (Rattus norvegicus [15])

OC[C@H]1O[C@@H](OCCc2ccc(O)cc2)[C@H](O)[C@@H](O)[C@@H]1O [SALIDROSIDE]
74.3%: Activity (Epithelial cell [23])
84%: Activity (Epithelial cell [28])
0.436%: Activity (Epithelial cell [19])
21.3%: Activity (Epithelial cell [22])
11%: Activity (Epithelial cell [35])
0.817%: Activity (Epithelial cell [21])
1.03%: Activity (Epithelial cell [38])
11.5%: Activity (Epithelial cell [18])
84.7%: viability at 40 µM (Epithelial cell [36])
3.74%: Activity (Epithelial cell [25])
3.7%: Activity (Epithelial cell [24])
3.27%: Activity (Epithelial cell [30])
active: Activity (Epithelial cell [16]) | Activity (Epithelial cell [17]) | Activity (Rattus norvegicus [1]) | Activity (Rattus norvegicus [2]) | Activity (Rattus norvegicus [3]) | Activity (Epithelial cell [20]) | Activity (Rattus norvegicus [4]) | Activity (Rattus norvegicus [5]) | Activity (Rattus norvegicus [6]) | Activity (Rattus norvegicus [7]) | Activity (Rattus norvegicus [8]) | Activity (Rattus norvegicus [9]) | Activity (Rattus norvegicus [10]) | Activity (Epithelial cell [26]) | Activity (Epithelial cell [27]) | Activity (Rattus norvegicus [11]) | Activity (Epithelial cell [29]) | Activity (Rattus norvegicus [12]) | Activity (Epithelial cell [31]) | Activity (Rattus norvegicus [13]) | Activity (Rattus norvegicus [14]) | Activity (Epithelial cell [32]) | Activity (Epithelial cell [33]) | Activity (Epithelial cell [34]) | Activity (Rattus norvegicus [15]) | Activity (Epithelial cell [37])
